Source: ChEMBL document CHEMBL3044664, “Synthesis of coumarin-based 1,3,4-oxadiazol-2ylthio-N-phenyl/benzothiazolyl acetamides as antimicrobial and antituberculosis agents” (2013)
Converted amounts (≈) assume the structure as drawn.

Columns and labels:
Type in all cases: functional
[1] = tested on: Candida albicans; test: Antifungal activity against Candida albicans MTCC 183 assessed as growth inhibition by agar streak dilution method
[2] = tested on: Bacillus cereus; test: Antibacterial activity against Bacillus cereus MTCC 430 assessed as growth inhibition by agar streak dilution method
[3] = tested on: Pseudomonas aeruginosa; test: Antibacterial activity against Pseudomonas aeruginosa MTCC 741 assessed as growth inhibition by agar streak dilution method
[4] = tested on: Salmonella typhi; test: Antibacterial activity against Salmonella enterica subsp. enterica serovar Typhi MTCC 733 assessed as growth inhibition by agar streak dilution method
[5] = tested on: Proteus vulgaris; test: Antibacterial activity against Proteus vulgaris MTCC 1771 assessed as growth inhibition by agar streak dilution method
[6] = tested on: Staphylococcus aureus; test: Antibacterial activity against Staphylococcus aureus MTCC 96 assessed as growth inhibition by agar streak dilution method
[7] = tested on: Mycobacterium tuberculosis; test: Antitubercular activity against Mycobacterium tuberculosis H37Rv assessed as growth inhibition at MIC by Lowenstein-Jensen method
[8] = tested on: Escherichia coli; test: Antibacterial activity against Escherichia coli MTCC 739 assessed as growth inhibition by agar streak dilution method
[9] = tested on: Klebsiella pneumoniae; test: Antibacterial activity against Klebsiella pneumoniae MTCC 109 assessed as growth inhibition by agar streak dilution method
[10] = tested on: Mycobacterium tuberculosis; test: Antitubercular activity against Mycobacterium tuberculosis H37Rv assessed as growth inhibition by BACTEC MGIT method
[11] = tested on: Aspergillus fumigatus; test: Antifungal activity against Aspergillus fumigatus MTCC 343 assessed as growth inhibition by agar streak dilution method
[12] = tested on: Mycobacterium tuberculosis; test: Antitubercular activity against Mycobacterium tuberculosis H37Rv assessed as growth inhibition by Lowenstein-Jensen method
[13] = tested on: Shigella flexneri; test: Antibacterial activity against Shigella flexneri MTCC 1457 assessed as growth inhibition by agar streak dilution method
[14] = tested on: Aspergillus niger; test: Antifungal activity against Aspergillus niger MTCC 282 assessed as growth inhibition by agar streak dilution method
[15] = tested on: Aspergillus clavatus; test: Antifungal activity against Aspergillus clavatus MTCC 1323 assessed as growth inhibition by agar streak dilution method

| Compound | MIC [1] [µg/mL] | MIC [2] [µg/mL] | MIC [3] [µg/mL] | MIC [4] [µg/mL] | MIC [5] [µg/mL] | MIC [6] [µg/mL] | growth inhibition (GI) [7] [%] | MIC [8] [µg/mL] | MIC [9] [µg/mL] | MIC [10] [µg/mL] | MIC [11] [µg/mL] | MIC [12] [µg/mL] | MIC [13] [µg/mL] | MIC [14] [µg/mL] | MIC [15] [µg/mL] |
| --- | --- | --- | --- | --- | --- | --- | --- | --- | --- | --- | --- | --- | --- | --- | --- |
| O=C(CSc1nnc(-c2cc3ccccc3oc2=O)o1)Nc1nc2ccc(I)cc2s1 | 100 (≈ 178 µM) | 100 (≈ 178 µM) | > 100 | 100 (≈ 178 µM) | > 100 | 100 (≈ 178 µM) | 97 | 50 (≈ 88.9 µM) | 100 (≈ 178 µM) | > 6.25 | 100 (≈ 178 µM) | 100 (≈ 178 µM) | 100 (≈ 178 µM) | 100 (≈ 178 µM) | 100 (≈ 178 µM) |
| O=C(CSc1nnc(-c2cc3ccccc3oc2=O)o1)Nc1nc2ccc([N+](=O)[O-])cc2s1 | 50 (≈ 104 µM) | 100 (≈ 208 µM) | 100 (≈ 208 µM) | 100 (≈ 208 µM) | 12.5 (≈ 26 µM) | 50 (≈ 104 µM) | 96 | 100 (≈ 208 µM) | 50 (≈ 104 µM) | > 6.25 | 100 (≈ 208 µM) | 250 (≈ 519 µM) | 100 (≈ 208 µM) | 50 (≈ 104 µM) | 100 (≈ 208 µM) |
| N#Cc1ccc2nc(NC(=O)CSc3nnc(-c4cc5ccccc5oc4=O)o3)sc2c1 | 50 (≈ 108 µM) | 100 (≈ 217 µM) | > 100 | 100 (≈ 217 µM) | 100 (≈ 217 µM) | 25 (≈ 54.2 µM) | 98 | 50 (≈ 108 µM) | 25 (≈ 54.2 µM) | > 6.25 | > 100 | 100 (≈ 217 µM) | > 100 | 100 (≈ 217 µM) | 100 (≈ 217 µM) |
| Cc1ccc2nc(NC(=O)CSc3nnc(-c4cc5ccccc5oc4=O)o3)sc2c1 | 100 (≈ 222 µM) | 100 (≈ 222 µM) | 100 (≈ 222 µM) | 100 (≈ 222 µM) | 100 (≈ 222 µM) | 100 (≈ 222 µM) | 95 | > 100 | 100 (≈ 222 µM) | > 6.25 | > 100 | 200 (≈ 444 µM) | > 100 | > 100 | 100 (≈ 222 µM) |
| COc1ccc2nc(NC(=O)CSc3nnc(-c4cc5ccccc5oc4=O)o3)sc2c1 | 50 (≈ 107 µM) | 50 (≈ 107 µM) | 50 (≈ 107 µM) | 25 (≈ 53.6 µM) | 25 (≈ 53.6 µM) | 25 (≈ 53.6 µM) | 98 | 100 (≈ 214 µM) | 100 (≈ 214 µM) | > 6.25 | 100 (≈ 214 µM) | 25 (≈ 53.6 µM) | 50 (≈ 107 µM) | 50 (≈ 107 µM) | 25 (≈ 53.6 µM) |
| CCOc1ccc2nc(NC(=O)CSc3nnc(-c4cc5ccccc5oc4=O)o3)sc2c1 | 100 (≈ 208 µM) | 25 (≈ 52 µM) | 6.25 (≈ 13 µM) | 12.5 (≈ 26 µM) | 100 (≈ 208 µM) | 12.5 (≈ 26 µM) | 97 | 50 (≈ 104 µM) | 100 (≈ 208 µM) | > 6.25 | 100 (≈ 208 µM) | 50 (≈ 104 µM) | 100 (≈ 208 µM) | 100 (≈ 208 µM) | 50 (≈ 104 µM) |
| CC(=O)Nc1ccc2nc(NC(=O)CSc3nnc(-c4cc5ccccc5oc4=O)o3)sc2c1 | > 100 | 100 (≈ 203 µM) | 12.5 (≈ 25.3 µM) | 100 (≈ 203 µM) | > 100 | 50 (≈ 101 µM) | 96 | 100 (≈ 203 µM) | 100 (≈ 203 µM) | > 6.25 | > 100 | 100 (≈ 203 µM) | 100 (≈ 203 µM) | 100 (≈ 203 µM) | 12.5 (≈ 25.3 µM) |
| O=C(CSc1nnc(-c2cc3ccccc3oc2=O)o1)Nc1ccc(F)cc1 | 25 (≈ 62.9 µM) | 50 (≈ 126 µM) | 100 (≈ 252 µM) | 50 (≈ 126 µM) | 100 (≈ 252 µM) | 12.5 (≈ 31.5 µM) | 99 | 50 (≈ 126 µM) | 100 (≈ 252 µM) | > 6.25 | 50 (≈ 126 µM) | 25 (≈ 62.9 µM) | 50 (≈ 126 µM) | 50 (≈ 126 µM) | 100 (≈ 252 µM) |
| O=C(CSc1nnc(-c2cc3ccccc3oc2=O)o1)Nc1ccc(I)cc1 | 100 (≈ 198 µM) | 100 (≈ 198 µM) | 100 (≈ 198 µM) | > 100 | 50 (≈ 99 µM) | 100 (≈ 198 µM) | 99 | 100 (≈ 198 µM) | 100 (≈ 198 µM) | > 6.25 | 100 (≈ 198 µM) | 12.5 (≈ 24.7 µM) | 100 (≈ 198 µM) | 100 (≈ 198 µM) | 100 (≈ 198 µM) |
| O=C(O)c1cn(C2CC2)c2cc(N3CCNCC3)c(F)cc2c1=O [CIPROFLOXACIN] | – | 0.39 (≈ 1.18 µM) | 0.78 (≈ 2.35 µM) | 0.39 (≈ 1.18 µM) | 0.39 (≈ 1.18 µM) | 1.56 (≈ 4.71 µM) | – | – | 0.78 (≈ 2.35 µM) | – | – | – | 1.56 (≈ 4.71 µM) | – | – |
| CC(=O)N1CCN(c2ccc(OCC3COC(Cn4ccnc4)(c4ccc(Cl)cc4Cl)O3)cc2)CC1 (stereo unspecified) [KETOCONAZOLE] | 1.56 (≈ 2.94 µM) | – | – | – | – | – | – | – | – | – | 0.78 (≈ 1.47 µM) | – | – | 1.56 (≈ 2.94 µM) | 0.78 (≈ 1.47 µM) |
